Data: patent US9499488B2, “Vitamin D receptor agonists and uses thereof” (Beth Israel Deaconess Medical Center, Inc., priority 2011, dated 2016)

Legend:
[1] = target: T1, VDR (GAL4-DBD/VDR-LBD fusion protein in HEK293T cells) (Homo sapiens, UniProt P11473); test: GeneBLAzer cell-based VDR assay (VDR-UAS-bla HEK 293T, beta-lactamase reporter); conditions: for Activity: agonist or antagonist at VDR, compounds of formula (I) tested as mixture of diastereomers; for VDR agonistic activity (degree, in words): high throughput screen of vitamin D receptor activity
T1 construct: the targeting construct (GAL4-DBD/VDR-LBD) fusion protein engineered in a HEK293T cell line containing 7XUAS-bla; host or cells: GeneBLAzer VDR-UAS-bla HEK 293T cells
T1 sequence (P11473 127-423 limits assumed): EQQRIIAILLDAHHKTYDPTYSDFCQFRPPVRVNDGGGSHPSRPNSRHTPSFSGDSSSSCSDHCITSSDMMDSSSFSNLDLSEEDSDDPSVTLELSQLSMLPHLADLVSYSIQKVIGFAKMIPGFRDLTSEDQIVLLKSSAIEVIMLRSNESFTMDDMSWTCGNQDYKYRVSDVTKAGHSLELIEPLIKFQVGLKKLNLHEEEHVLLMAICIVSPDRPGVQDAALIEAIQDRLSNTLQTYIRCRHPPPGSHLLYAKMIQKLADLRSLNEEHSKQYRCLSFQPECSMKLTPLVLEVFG
Text: High throughput assay validation of the top ranked unique molecules from each of three PDB conformations on the basis of docking score (glide score+ionization state penalty). From this priority list 200 of the best ranked molecules, following ADMET evaluation, were purchased and subjected to binding assays. The compounds of formula (I) were obtained and tested as a mixture of diastereomers.
To determine which compounds identified by virtual screens are actually capable of regulating the transcriptional profile of VDR, we performed GeneBLAzer® Cell-Based VDR Assay (kit was bought from Invitrogen and assay performed as per instructions). Upon binding of a VDR agonist to the targeting construct (GAL4-DBD/VDR-LBD) fusion protein engineered in a HEK293T cell line containing 7XUAS-bla, a transcriptional cascade is initiated that produces β-lactamase (BLA). In the presence of the BLA LiveBLAzer™ substrate, cells expressing BLA will fluoresce blue (460 nm), while those not expressing BLA will fluoresce green (530 nm); higher […] ratio indicating the activation of VDR, whereas in presence of calcitriol (potent agonist) diminishing of this ratio indicates an antagonist behavior of the ligand. The agonist and antagonist abilities of CADD-selected compounds were determined in six-point concentration profile and compared with vehicle.
GeneBLAzer® VDR-UAS-bla HEK 293T cells were purchased from Invitrogen (Cat# K1700). The cells were cultured in growth medium in a humidified (37° C./5% CO2) incubator following the manufacture's instruction. Test compounds (ChemBridge, San Diego, Calif.) and Calcitriol (1α,25-Dihydroxyvitamin D3, Sigma) were dissolved in 100% DMSO(Sigma) at 1000-fold stock concentration and stored at −20° C., which were diluted in assay medium immediately prior to use. LiverBLAzer-FRET B/G loading kit was purchased from Invitrogen.
The GeneBLAzer® VDR-UAS-bla HEK 293T cell-based assay was used to screen 200 compounds for activity at the vitamin D receptor. The assay was run in triplicate following the manufacture's instruction. Briefly, 2×10^4 cells in 32 μl assay medium were added to each well of a 384-well black-wall assay plate (Corning Incorporated, Cat#3712). To each well was added 8 al of compound solution diluted in assay medium, the cells were incubated in a humidified (37° C./5% CO2) incubator for 5 hours. The cell-free wells (containing 32 μl assay medium only) and unstimulated cell wells were treated in parallel with the same concentration of DMSO in assay medium, which were used as background controls and blank controls, respectively. Calcitriol was used as a positive control. To each well was added 8 μl of LiverBLAzer-FRET B/G substrate mixture. The plate was covered with plate sealer and incubated at room temperature for 2 hours in the dark. Fluorescence emission was measured on SpectraMax plate reader at 460 nm and 530 nm with excitation set to 409 nm. After subtraction of background, the average value at 460 nm was divided by the average value at 530 nm to obtain the 460/530 ratio.

[2] = Inhibition of hyperparathyroidism: serum PTH in 1α-hydroxylase knock out mice; format: in vivo; conditions: 0.6 μg/kg three times a week; 1α-OH KO mice; serum PTH ELISA
Text: We performed long-term (7 days) in vivo experiments comparing the parathyroid hormone (PTH) levels following administration of compound 10 (aka VDRA) to an equivalent dose of paricalcitol (PC), a VDR agonist used to treat secondary hyperparathyroidism.
For this study, we used 1α-hydroxylase (1α-OH) knock out (KO) mice, which lack 1α-OH, an enzyme that converts 25(OH)VitD3 to the hormonally active form, 1,25-dihydroxyvitamin D3 (1,25(OH)2VitD3). These mice are designed to have a low vitamin D level at baseline and are hypocalcemic.
We administered 0.6 μg/kg of compound 10 or paricalcitol three times a week (Mon, Wed, Fri) for three weeks. Serum PTH level was measured using a PTH (intact, mouse) ELISA immunoassay (Alpco, Salem, Mass.).

[3] = Calcemic effects: serum ionized calcium in 1α-hydroxylase knock out mice; format: in vivo; conditions: 1α-OH KO mice; for increase in serum calcium level compared to the vehicle, long term: 0.6 μg/kg for one week (three administrations); for increase in serum calcium level compared to the vehicle, short term: 24 hours after administration, 0.60 and 3.0 μg/kg doses
Protocol: We performed short-term (24 hours) and long-term (7 days) in vivo experiments comparing the calcemic effect of compound 10 (aka VDRA) to an equivalent dose of calcitriol.
For this study, we used 1α-hydroxylase (1α-OH) knock out (KO) mice, which lack 1α-OH, an enzyme that converts 25(OH)VitD3 to the hormonally active form, 1,25-dihydroxyvitamin D3 (1,25(OH)2VitD3) or calcitriol. These mice are designed to have a low vitamin D level at baseline and are hypocalcemic.
For the short term experiment, we administered 0.6 μg/kg (therapeutic dose) and 3 μg/kg (supratherapeutic dose) of vehicle, calcitriol or compound 10, and then measured serum calcium level 24 hours after administration.
For the long-term experiment, we administered 0.6 μg/kg of vehicle, calcitriol or compound 10 for one week. We administered the drugs on Wednesday, Friday, and Monday, and measured serum calcium level on the following Tuesday.
Serum ionized calcium levels were measured using clinical grade iSTAT system (Abbott laboratories).

[4] = tested on: adult rat cardiomyocytes (ARCMs); test: Phenylephrine-induced hypertrophy in adult rat cardiomyocytes in vitro (ANP level); format: cell-based; conditions: pre-treated 24 hours, then PE (100 μM) for 48 hours
Protocol: We used adult rat cardiomyocytes (ARCMs) in these studies because heart failure is predominantly a disease of the adult heart. ARCM cultures were prepared from the hearts of female Sprague-Dawley rats by enzymatic dissociation using 0.3% collagenase. Each heart yields about 3-4×10^6 viable ventricular cardiomyocytes. Freshly isolated adult cardiomyocyte cultures contain >90% rod-shaped myocytes and less than 1% of the cells are non-myocytes. The cells were used within 24 hours of plating.
We examined how the response of cardiomyocytes to specific hypertrophic stimulus, phenylephrine (PE) is modulated by pretreatment with compound 10 as compared to known activated vitamin D analog, paricalcitol (PC). In this experiment, ARCM was pre-treated with vehicle, compound 10 (different doses) or paricalcitol ([…]) for 24 hours. The cells were then exposed to PE (100 μM) or vehicle for 48 hours. After exposing the cells to hypertrophic stimulation for 48 hours, they were collected and analyzed for several well-established parameters of cardiac hypertrophy, such as tissue atrial natriuretic peptide (ANP) level.

[5] = Phenylephrine (PE) induced cardiac hypertrophy in mice; format: in vivo; conditions: PE 30 mg/kg/day via osmotic pump 7 days; compound 60 ng/kg 3×/week intraperitoneally
Protocol: FIGS. 5A-5C are bar graphs depicting the anti-hypertrophic potential of compound 10 (aka VDRA) in phenylephrine (PE) induced cardiac hypertrophy in mice (see Example 6). […] Mice were infused with PE (30 mg/kg/day) via osmotic pump for 7 days. In FIGS. 5A-5C (i) Con=control group with the same amount of saline infusion by osmotic pump; (ii) Vehicle or VDRA ([…]) were injected 3×/week intraperitoneally; (iii) total volume injected=50 μL/animal/injection; (iv) *=p<0.05 vs Control; (v) **=p<0.05 vs Vehicle; and (vi) N=4.
The anti-hypertrophic potential of compound 10 (aka VDRA) in phenylephrine (PE) induced cardiac hypertrophy in mice was evaluated in vivo. WT mice were infused with phenylephrine (PE) (30 mg/kg/day) via osmotic pump for 7 days. After 7 days, the mice were sacrificed, organ weighed, and hearts were obtained for mRNA processing. Vehicle or compound 10 (60 ng/kg) were injected 3×/week intraperitoneally (total volume injected=50 μL/animal/injection).

Compound	Activity [1]	further results
CCSCCOC(=O)C1=C(C)NC2=C(C(=O)CC(c3ccccc3)C2)C1c1ccccc1 (stereo not drawn) [Compound 1]	Agonist	VDR agonistic activity (degree, in words) [1]: highest degree of agonistic activity
CCOC(=O)C1=C(C)NC2=C(C(=O)CC(c3ccc(Cl)cc3)C2)C1c1ccc(F)cc1 (stereo not drawn) [Compound 2]	Agonist	–
COc1ccc(C2C(C(=O)OCCOc3ccccc3)=C(C)NC3=C2C(=O)CC(c2ccccc2)C3)cc1O (stereo not drawn) [Compound 3]	Agonist	–
CCOC(=O)C1=C(C)NC2=C(C(=O)CC(c3ccc(OC)cc3)C2)C1c1cccc(O)c1 (stereo not drawn) [Compound 4]	Antagonist	–
CCc1ccc(C2C(C(=O)OCCOc3ccccc3)=C(C)NC3=C2C(=O)CC(c2ccc(OC)cc2)C3)cc1 (stereo not drawn) [Compound 5]	Agonist	–
CCSCCOC(=O)C1=C(C)NC2=C(C(=O)CC(c3ccccc3OC)C2)C1c1ccccc1F (stereo not drawn) [Compound 6]	Agonist	–
CCOc1cc(C2C(C(=O)OCCSCC)=C(C)NC3=C2C(=O)CC(c2ccc(OC)cc2)C3)ccc1O (stereo not drawn) [Compound 7]	Agonist	–
COCCOC(=O)C1=C(C)NC2=C(C(=O)CC(c3ccc(Cl)cc3)C2)C1c1ccc(Br)cc1 (stereo not drawn) [Compound 8]	Agonist	–
CCOC(=O)C1=C(C)NC2=C(C(=O)CC(c3ccc(OC)cc3)C2)C1c1ccc(O)cc1 (stereo not drawn) [Compound 9]	Antagonist	–
CCSCCOC(=O)C1=C(C)NC2=C(C(=O)CC(c3ccc(Cl)cc3)C2)C1c1cccc(OC)c1 (stereo not drawn) [Compound 10]	Agonist	PTH levels [2]: significantly reduced; increase in serum calcium level compared to the vehicle, long term [3]: did not show any increase; increase in serum calcium level compared to the vehicle, short term [3]: did not show significant increase; anti-hypertrophic effect (ANP level) [4]: significant anti-hypertrophic effect; PE-induced ANF (atrial natriuretic factor) activation in left ventricular tissue (mRNA) [5]: effectively suppressed; PE-induced heart weight/body weight (HW/BW) ratio [5]: effectively blocked; PE-induced lung weight/BW (LW/BW) ratio [5]: effectively blocked
CCSCCOC(=O)C1=C(C)NC2=C(C(=O)CC(c3ccc(Cl)cc3)C2)C1c1ccccc1F (stereo not drawn) [Compound 11]	Agonist	–
COc1ccc(C2CC(=O)C3=C(C2)NC(C)=C(C(=O)OCCOc2ccccc2)C3c2ccccc2)cc1 (stereo not drawn) [Compound 12]	Agonist	–
CCSCCOC(=O)C1=C(C)NC2=C(C(=O)CC(c3ccc(OC)cc3)C2)C1c1ccccc1F (stereo not drawn) [Compound 13]	Agonist	–
COCCOC(=O)C1=C(C)NC2=C(C(=O)CC(c3ccc(Cl)cc3)C2)C1c1ccc(C)cc1 (stereo not drawn) [Compound 14]	Agonist	–
CCSCCOC(=O)C1=C(C)NC2=C(C(=O)CC(c3ccc(Cl)cc3)C2)C1c1ccccc1OC (stereo not drawn) [Compound 15]	Agonist	–
CCOCCOC(=O)C1=C(C)NC2=C(C(=O)CC(c3ccc(Cl)cc3)C2)C1c1ccc(F)cc1 (stereo not drawn) [Compound 16]	Agonist	–
CCSCCOC(=O)C1=C(C)NC2=C(C(=O)CC(c3ccc(OC)cc3)C2)C1c1ccccc1OC (stereo not drawn) [Compound 17]	Agonist	–
Cc1ccc(OCC(=O)Nc2ccc(S(=O)(=O)Nc3c(C)cc(C)cc3C)cc2)cc1 [Compound 18]	Agonist	VDR agonistic activity (degree, in words) [1]: modest agonist activity
Cc1cc(C)c(NS(=O)(=O)c2ccc(NC(=O)COc3ccc(Cl)cc3)cc2)c(C)c1 [Compound 19]	Agonist	–
Cc1cccc(OCC(=O)Nc2ccc(S(=O)(=O)Nc3c(C)cc(C)cc3C)cc2)c1 [Compound 20]	Agonist	–
CCc1ccc(OCC(=O)Nc2ccc(S(=O)(=O)Nc3cc(C)cc(C)c3)cc2)cc1 [Compound 21]	Antagonist	–
Cc1cc(C)c(NS(=O)(=O)c2ccc(NC(=O)COc3ccc(Cl)cc3Cl)cc2)c(C)c1 [Compound 22]	Antagonist	–
Cc1cccc(OCC(=O)Nc2ccc(S(=O)(=O)Nc3ccc(C)cc3C)cc2)c1 [Compound 23]	Antagonist	–
COc1ccc(NS(=O)(=O)c2ccc(NC(=O)COc3ccccc3C)cc2)cc1 [Compound 24]	Antagonist	–
C=C1/C(=C\C=C2/CCC[C@]3(C)[C@@H]([C@H](C)CCCC(C)(C)O)CC[C@@H]23)C[C@@H](O)C[C@@H]1O [calcitriol, 1α,25-Dihydroxyvitamin D3, reference compound]	–	increase in serum calcium level compared to the vehicle, long term [3]: about 45%; increase in serum calcium level compared to the vehicle, short term [3]: did not show significant increase
C[C@H](/C=C/[C@H](C)C(C)(C)O)[C@H]1CC[C@H]2/C(=C/C=C3C[C@@H](O)C[C@H](O)C3)CCC[C@]12C [paricalcitol, reference compound]	–	PTH levels [2]: significantly reduced
